Calls of active or inactive are those of the source. The rule behind the calls is not given here.
How the values were obtained:
HepG2 [1] = experiment: Anticancer activity against human HepG2 cells assessed as inhibition of cell viability incubated for 72 hrs by MTT assay; assay type: functional, cell-based; settings: HepG2, 72 h
[2] = Selectivity index, ratio of IC50 for cytotoxicity against human MRC5 cells to IC50 for anticancer activity against human HepG2 cells; assay type: toxicity, cell-based; settings: MRC5 cells versus HepG2 cells, read-out: Ratio IC50
[3] = Cytotoxicity against human MRC5 cells assessed as inhibition of cell viability incubated for 72 hrs by MTT assay; assay type: toxicity, cell-based
HepG2 [4] = experiment: Potency index, ratio of Sorafenib IC50 to test compound IC50 for anticancer activity against human HepG2 cells assessed as inhibition of cell viability incubated for 72 hrs by MTT assay; assay type: functional
HepG2 [5] = experiment: Induction of apoptosis in human HepG2 cells at 5 uM incubated for 72 hrs by Annexin V-FITC/PI staining based flow cytometry; assay type: functional, cell-based

## Cc1ccc(-n2cc(COc3cccc(NC(=O)Nc4ccc(Cl)c(C(F)(F)F)c4)c3)nn2)cc1
HepG2 [1]
  IC50: 5430 nM

## CCc1ccccc1-n1cc(COc2cccc(NC(=O)Nc3ccc(Cl)c(C(F)(F)F)c3)c2)nn1
HepG2 [1]
  IC50: 3530 nM

## O=C(Nc1cccc(OCc2cn(-c3ccccc3Cl)nn2)c1)Nc1ccc(Cl)c(C(F)(F)F)c1
HepG2 [1]
  IC50: 1960 nM

## COc1ccc(-n2cc(COc3cccc(NC(=O)Nc4ccc(Cl)c(C(F)(F)F)c4)c3)nn2)cc1
HepG2 [1]
  IC50: 4680 nM

## N#Cc1ccccc1-n1cc(COc2cccc(NC(=O)Nc3ccc(Cl)c(C(F)(F)F)c3)c2)nn1
[2]
  selectivity ratio: 8.89
HepG2 [1]
  IC50: 1970 nM
[3]
  IC50 at 72 h: 17500 nM

## CC(C)c1cccc(-n2cc(COc3cccc(NC(=O)Nc4ccc(Cl)c(C(F)(F)F)c4)c3)nn2)c1
[2]
  selectivity ratio: 6.58
HepG2 [1]
  IC50: 3250 nM
[3]
  IC50 at 72 h: 21400 nM

## Cc1ccccc1-n1cc(COc2cccc(NC(=O)Nc3ccc(Cl)c(C(F)(F)F)c3)c2)nn1
HepG2 [1]
  IC50: 3440 nM

## Cc1cccc(-n2cc(COc3cccc(NC(=O)Nc4ccc(Cl)c(C(F)(F)F)c4)c3)nn2)c1
HepG2 [1]
  IC50: 7270 nM

## O=C(Nc1cccc(OCc2cn(-c3ccccc3Br)nn2)c1)Nc1ccc(Cl)c(C(F)(F)F)c1
HepG2 [1]
  IC50: 2810 nM

## CCc1ccc(-n2cc(COc3cccc(NC(=O)Nc4ccc(Cl)c(C(F)(F)F)c4)c3)nn2)cc1
HepG2 [1]
  IC50: 1950 nM

## COc1cccc(-n2cc(COc3cccc(NC(=O)Nc4ccc(Cl)c(C(F)(F)F)c4)c3)nn2)c1
[2]
  selectivity ratio: 6.55
HepG2 [1]
  IC50: 1310 nM
[3]
  IC50 at 72 h: 8570 nM

## CC(C)c1ccc(-n2cc(COc3cccc(NC(=O)Nc4ccc(Cl)c(C(F)(F)F)c4)c3)nn2)cc1
HepG2 [1]
  IC50: 2470 nM

## O=C(Nc1cccc(OCc2cn(-c3ccc(Br)cc3)nn2)c1)Nc1ccc(Cl)c(C(F)(F)F)c1
[2]
  selectivity ratio: 4.03
HepG2 [1]
  IC50: 2730 nM
[3]
  IC50 at 72 h: 11000 nM

## O=C(Nc1cccc(OCc2cn(-c3ccc(Cl)cc3)nn2)c1)Nc1ccc(Cl)c(C(F)(F)F)c1
HepG2 [1]
  IC50: 2490 nM

## O=C(Nc1cccc(OCc2cn(-c3cccc(Cl)c3)nn2)c1)Nc1ccc(Cl)c(C(F)(F)F)c1
HepG2 [1]
  IC50: 2020 nM

## O=C(Nc1cccc(OCc2cn(-c3ccc(C(F)(F)F)cc3)nn2)c1)Nc1ccc(Cl)c(C(F)(F)F)c1
HepG2 [1]
  IC50: 1800 nM

## O=C(Nc1cccc(OCc2cn(-c3ccc(F)cc3)nn2)c1)Nc1ccc(Cl)c(C(F)(F)F)c1
[2]
  selectivity ratio: 3.52
HepG2 [1]
  IC50: 1350 nM
[3]
  IC50 at 72 h: 4740 nM

## O=C(Nc1cccc(OCc2cn(-c3cccc(C(F)(F)F)c3)nn2)c1)Nc1ccc(Cl)c(C(F)(F)F)c1
HepG2 [1]
  IC50: 1270 nM

## O=C(Nc1cccc(OCc2cn(-c3cccc(F)c3)nn2)c1)Nc1ccc(Cl)c(C(F)(F)F)c1
HepG2 [1]
  IC50: 2120 nM

## N#Cc1ccc(-n2cc(COc3cccc(NC(=O)Nc4ccc(Cl)c(C(F)(F)F)c4)c3)nn2)cc1
HepG2 [1]
  IC50: 2980 nM

## N#Cc1cccc(-n2cc(COc3cccc(NC(=O)Nc4ccc(Cl)c(C(F)(F)F)c4)c3)nn2)c1
[2]
  selectivity ratio: 1.07
HepG2 [1]
  IC50: 2760 nM
[3]
  IC50 at 72 h: 2960 nM

## O=C(Nc1cccc(OCc2cn(-c3ccc(I)cc3)nn2)c1)Nc1ccc(Cl)c(C(F)(F)F)c1
[2]
  selectivity ratio: 2.55
HepG2 [1]
  IC50: 2690 nM
[3]
  IC50 at 72 h: 6840 nM

## O=C(Nc1cccc(OCc2cn(-c3ccccc3)nn2)c1)Nc1ccc(Cl)c(C(F)(F)F)c1
[2]
  selectivity ratio: 10.3
HepG2 [4]
  Ratio IC50: 2.8
HepG2 [1]
  IC50: 1780 nM
[3]
  IC50 at 72 h: 18400 nM

## O=C(Nc1cccc(OCc2cn(-c3ccccc3F)nn2)c1)Nc1ccc(Cl)c(C(F)(F)F)c1
HepG2 [1]
  IC50: 1520 nM

## O=C(Nc1cccc(OCc2cn(-c3ccccc3I)nn2)c1)Nc1ccc(Cl)c(C(F)(F)F)c1
[2]
  selectivity ratio: 7.61
HepG2 [1]
  IC50: 2870 nM
[3]
  IC50 at 72 h: 21900 nM

## CNC(=O)c1cc(Oc2ccc(NC(=O)Nc3ccc(Cl)c(C(F)(F)F)c3)cc2)ccn1 [SORAFENIB]
HepG2 [5]
  Activity: Active
[3]
  IC50 at 72 h: 11100 nM

## CC(C)c1ccccc1-n1cc(COc2cccc(NC(=O)Nc3ccc(Cl)c(C(F)(F)F)c3)c2)nn1
HepG2 [1]
  IC50: 1900 nM

## O=C(Nc1cccc(OCc2cn(-c3ccccc3C(F)(F)F)nn2)c1)Nc1ccc(Cl)c(C(F)(F)F)c1
[2]
  selectivity ratio: 3.55
HepG2 [1]
  IC50: 2320 nM
[3]
  IC50 at 72 h: 8230 nM

## COc1ccccc1-n1cc(COc2cccc(NC(=O)Nc3ccc(Cl)c(C(F)(F)F)c3)c2)nn1
HepG2 [1]
  IC50: 11300 nM

## O=C(Nc1cccc(OCc2cn(-c3cccc(Br)c3)nn2)c1)Nc1ccc(Cl)c(C(F)(F)F)c1
HepG2 [5]
  Activity: Active
[2]
  selectivity ratio: 11.5
HepG2 [4]
  Ratio IC50: 5
HepG2 [1]
  IC50: 1040 nM
[3]
  IC50 at 72 h: 11900 nM

## CCc1cccc(-n2cc(COc3cccc(NC(=O)Nc4ccc(Cl)c(C(F)(F)F)c4)c3)nn2)c1
HepG2 [1]
  IC50: 37900 nM

## O=C(Nc1cccc(OCc2cn(-c3cccc(I)c3)nn2)c1)Nc1ccc(Cl)c(C(F)(F)F)c1
HepG2 [1]
  IC50: 4780 nM

— ChEMBL document CHEMBL5214985, “meta-Ureidophenoxy-1,2,3-triazole hybrid as a novel scaffold for promising HepG2 hepatocellular carcinoma inhibitors: Synthesis, biological evaluation and molecular docking studies” (Bioorg Med Chem, 2022)
